Positions count from the first letter of the chain named.
Legend:
[1] = biological target: T1, ROS-GC1 (rod outer segment guanylate cyclase type 1), full-length recombinant (Bos taurus, UniProt P55203, A1013R/N1009A); experiment: biochemical
T1 construct: gene GUCY2D
T1 sequence (P55203 57-1110 N1009A/A1013R): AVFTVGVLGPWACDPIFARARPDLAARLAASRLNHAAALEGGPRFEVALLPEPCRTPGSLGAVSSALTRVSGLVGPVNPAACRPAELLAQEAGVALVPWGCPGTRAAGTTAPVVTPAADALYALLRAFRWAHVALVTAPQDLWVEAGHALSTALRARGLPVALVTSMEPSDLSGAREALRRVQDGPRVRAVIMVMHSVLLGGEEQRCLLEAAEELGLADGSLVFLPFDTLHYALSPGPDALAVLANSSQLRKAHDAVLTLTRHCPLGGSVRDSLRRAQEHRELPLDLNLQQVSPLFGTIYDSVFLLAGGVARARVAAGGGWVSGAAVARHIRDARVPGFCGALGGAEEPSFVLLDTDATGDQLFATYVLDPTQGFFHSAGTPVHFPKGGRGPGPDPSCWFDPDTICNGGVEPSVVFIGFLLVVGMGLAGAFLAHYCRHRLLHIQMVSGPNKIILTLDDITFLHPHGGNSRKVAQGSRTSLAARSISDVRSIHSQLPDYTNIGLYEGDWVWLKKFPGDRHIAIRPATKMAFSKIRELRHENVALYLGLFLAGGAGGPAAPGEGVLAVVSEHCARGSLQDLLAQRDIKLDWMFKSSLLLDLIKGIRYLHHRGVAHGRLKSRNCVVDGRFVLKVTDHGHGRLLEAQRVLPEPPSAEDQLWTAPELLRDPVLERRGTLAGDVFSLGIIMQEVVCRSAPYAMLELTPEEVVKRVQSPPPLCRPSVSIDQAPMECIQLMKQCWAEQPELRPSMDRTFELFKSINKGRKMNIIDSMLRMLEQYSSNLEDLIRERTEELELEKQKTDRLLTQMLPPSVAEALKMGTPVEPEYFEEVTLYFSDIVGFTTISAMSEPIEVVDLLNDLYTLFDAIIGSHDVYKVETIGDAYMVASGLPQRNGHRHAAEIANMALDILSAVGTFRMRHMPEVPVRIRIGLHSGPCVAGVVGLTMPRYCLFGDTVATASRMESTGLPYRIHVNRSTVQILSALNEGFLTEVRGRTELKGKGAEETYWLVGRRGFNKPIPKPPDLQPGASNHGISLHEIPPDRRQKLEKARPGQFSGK

[2] = biological target: T2, ROS-GC1 (rod outer segment guanylate cyclase type 1), full-length recombinant (Bos taurus, UniProt P55203, A1013R); experiment: biochemical
T2 construct: gene GUCY2D
T2 sequence (P55203 57-1110 A1013R): T1 sequence (P55203 57-1110 N1009A/A1013R) with A953N

EC50 [1]: ~25 mM
EC50 [2]: 25 mM
Compound: O=C(O)O [bicarbonate]
